In patent US20230124087A1, “KV3 ENHANCERS FOR THE TREATMENT OF COGNITIVE DISORDERS” (Hoffmann-La Roche Inc., priority 2020, published 2023):
pEC50: −log10 of the molar value. Where two headings read alike, the source gives them in different places.

Target: T1, Kv3.1 (Homo sapiens, UniProt P48547)
T1 construct: expressed in transfected cells
T1 sequence (P48547 1-511): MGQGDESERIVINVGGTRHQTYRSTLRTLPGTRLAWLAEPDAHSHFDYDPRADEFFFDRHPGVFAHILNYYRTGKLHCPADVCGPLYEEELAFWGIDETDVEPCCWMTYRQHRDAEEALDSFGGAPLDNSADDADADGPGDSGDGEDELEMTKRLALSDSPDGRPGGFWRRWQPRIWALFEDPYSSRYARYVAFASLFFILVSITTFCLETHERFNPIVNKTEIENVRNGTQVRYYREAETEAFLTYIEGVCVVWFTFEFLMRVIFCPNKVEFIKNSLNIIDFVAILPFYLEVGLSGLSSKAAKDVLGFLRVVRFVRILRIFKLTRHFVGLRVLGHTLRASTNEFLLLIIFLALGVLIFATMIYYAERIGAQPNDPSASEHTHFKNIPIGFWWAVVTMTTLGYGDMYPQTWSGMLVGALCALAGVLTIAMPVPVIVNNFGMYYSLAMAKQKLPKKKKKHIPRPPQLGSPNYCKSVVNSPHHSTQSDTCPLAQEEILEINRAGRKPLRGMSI
Assay: Kv3.1 automated patch clamp (Qube) cellular electrophysiology assay
Format: cell-based
Description: In vitro, high-throughput cellular electrophysiology was employed to detect voltage-dependence of compounds in single concentration screening and IC50 determination for library and medicinal chemistry profiling compounds in 384 well plates.
HEK-293 cell lines stably expressing coding DNA for Kv3.1, 3.2, 3.3, and 3.4 were validated on an automated patch clamp (APC) platform, Qube from Sophion/Denmark. Cell cultures were maintained in DMEM cell growth media containing FBS and appropriate antibiotics at 37° C., 5% CO2 for a maximum of 20 passages. Intra- and extracellular (w. glucose) HEPES buffers containing various monovalent and divalent cations were adjusted to pH 7.2 and 7.4 respectively. Cells were harvested at 75% confluency and resuspended in extracellular buffer and added to wells. Negative pressure was applied to establish whole cell recording by APC.
Currents through activated channels were measured directly by APC by employing depolarization voltage steps. Baseline currents were established for the voltage-dependence protocols using a −80 mV holding potential and multiple test pulses at +10 mV or by 10 mV steps from −80 mV to +40 mV, respectively. Test compounds were added after baseline recordings followed by a 10 min incubation, and voltage-dependency protocol recordings. Data was corrected for baseline and leak currents (well based) and normalized for % potentiation (plate based). Two previously reported Kv3 positive modulators of varying potencies were used for run to run and plate to plate quality controls. A non-selective and potent positive modulator was used as a positive control. Percent potentiation was analyzed at −20 mV of the voltage-dependency protocol and voltage shift in channel activation was analyzed using the voltage step protocol from −80 mV to +40 mV. Selectivity was assessed against Kv3.2, Kv3.3, and Kv3.4 overexpressing cell lines using similar methods.

pEC50 (HEK-293 cell line stably expressing Kv3.1, automated patch clamp, 10 min incubation, read-out: EC50 Kv3.1) | SMILES | pEC50
– | O=c1[nH]c2cccnc2n1-c1ccc(Oc2cccc3c2C2(CC2)CO3)nc1 [Example 1, 3-(6-spiro[2H-benzofuran-3,1′-cyclopropane]-4-yloxy-3-pyridyl)-1H-imidazo[4,5-b]pyridin-2-one] | 6.52
– | O=c1[nH]c2cncnc2n1-c1ccc(Oc2cccc3c2C2(CC2)CO3)nc1 [Example 2, 9-(6-spiro[2H-benzofuran-3,1′-cyclopropane]-4-yloxy-3-pyridyl)-7H-purin-8-one] | 6.10
– | Cc1ccc(Oc2ccc(-n3c(=O)[nH]c4cccnc43)cn2)cc1Cl [Example 3, 3-[6-(3-chloro-4-methyl-phenoxy)-3-pyridyl]-1H-imidazo[4,5-b]pyridin-2-one] | 5.80
– | CC(C)(C)c1cc(C#N)ccc1Oc1ccc(-n2c(=O)[nH]c3cccnc32)cn1 [Example 4, 3-tert-butyl-4-[[5-(2-oxo-1H-imidazo[4,5-b]pyridin-3-yl)-2-pyridyl]oxy]benzonitrile] | 5.70
– | CC(C)c1cc(Oc2ccc(-n3c(=O)[nH]c4cccnc43)cn2)ccc1C#N [Example 5, 2-isopropyl-4-[[5-(2-oxo-1H-imidazo[4,5-b]pyridin-3-yl)-2-pyridyl]oxy]benzonitrile] | 5.57
– | O=c1[nH]c2cnccc2n1-c1ccc(Oc2cccc3c2C2(CC2)CO3)nc1 [Example 6, 1-(6-spiro[2H-benzofuran-3,1′-cyclopropane]-4-yloxy-3-pyridyl)-3H-imidazo[4,5-c]pyridin-2-one] | 5.70
– | COc1cc(Oc2ccc(-n3c(=O)[nH]c4cc(F)cnc43)cn2)ccc1C [Example 7, 6-fluoro-3-[6-(3-methoxy-4-methyl-phenoxy)-3-pyridyl]-1H-imidazo[4,5-b]pyridin-2-one] | 5.66
– | O=c1[nH]c2cccnc2n1-c1ccc(Oc2cccc3c2C2(CC2)CO3)c(F)c1 [Example 8, 3-(3-fluoro-4-spiro[2H-benzofuran-3,1′-cyclopropane]-4-yloxy-phenyl)-1H-imidazo[4,5-b]pyridin-2-one] | 5.64
– | COc1cc(Oc2ccc(-n3c(=O)[nH]c4cc(C)cnc43)cn2)ccc1C [Example 9, 3-[6-(3-methoxy-4-methyl-phenoxy)-3-pyridyl]-6-methyl-1H-imidazo[4,5-b]pyridin-2-one] | 5.60
– | O=c1[nH]c2ccccc2n1-c1ccc(Oc2cccc3c2C2(CC2)CO3)nc1 [Example 10, 3-(6-spiro[2H-benzofuran-3,1′-cyclopropane]-4-yloxy-3-pyridyl)-1H-benzimidazol-2-one] | 5.60
– | Cc1cc(-n2c(=O)[nH]c3ccccc32)cnc1Oc1cccc2c1C1(CC1)CO2 [Example 11, 3-(5-methyl-6-spiro[2H-benzofuran-3,1′-cyclopropane]-4-yloxy-3-pyridyl)-1H-benzimidazol-2-one] | 5.55
– | O=c1[nH]c2ccncc2n1-c1ccc(Oc2cccc3c2C2(CC2)CO3)nc1 [Example 12, 3-(6-spiro[2H-benzofuran-3,1′-cyclopropane]-4-yloxy-3-pyridyl)-1H-imidazo[4,5-c]pyridin-2-one] | 5.41
– | O=c1[nH]c2ncccc2n1-c1ccc(Oc2cccc3c2C2(CC2)CO3)nc1 [Example 13, 1-(6-spiro[2H-benzofuran-3,1′-cyclopropane]-4-yloxy-3-pyridyl)-3H-imidazo[4,5-b]pyridin-2-one] | 5.47
– | CC(C)c1cc(Oc2ccc(-n3c(=O)[nH]c4cc(F)cnc43)cn2)ccc1C#N [Example 14, 4-[[5-(6-fluoro-2-oxo-1H-imidazo[4,5-b]pyridin-3-yl)-2-pyridyl]oxy]-2-isopropyl-benzonitrile] | 5.57
– | CC(C)c1cc(Oc2ccc(-n3c(=O)[nH]c4cncnc43)cn2)ccc1C#N [Example 15, 2-isopropyl-4-[[5-(8-oxo-7H-purin-9-yl)-2-pyridyl]oxy]benzonitrile] | 5.46
– | CC(C)c1cc(Oc2ccc(-n3c(=O)[nH]c4cnccc43)cn2)ccc1C#N [Example 16, 2-isopropyl-4-[[5-(2-oxo-3H-imidazo[4,5-c]pyridin-1-yl)-2-pyridyl]oxy]benzonitrile] | 5.23
– | CC(C)c1cc(Oc2ccc(-n3c(=O)[nH]c4cccnc43)cc2F)ccc1C#N [Example 17, 4-[2-fluoro-4-(2-oxo-1H-imidazo[4,5-b]pyridin-3-yl)phenoxy]-2-isopropyl-benzonitrile] | 5.33

pEC50 (HEK-293 cell line stably expressing Kv3.1, automated patch clamp, 10 min incubation, read-out: EC50 Kv3.1) | SMILES | pEC50
– | CC(C)c1cc(Oc2ccc(-n3c(=O)[nH]c4cncnc43)cc2F)ccc1C#N [Example 18, 4-[2-fluoro-4-(8-oxo-7H-purin-9-yl)phenoxy]-2-isopropyl-benzonitrile] | 4.73
– | CC(C)c1cc(Oc2ccc(-n3c(=O)[nH]c4ccccc43)cn2)ccc1C#N [Example 19, 2-isopropyl-4-[[5-(2-oxo-3H-benzimidazol-1-yl)-2-pyridyl]oxy]benzonitrile] | 4.81
– | CC(C)(C)c1cc(C#N)ccc1Oc1ccc(-n2c(=O)[nH]c3ccccc32)cn1 [Example 20, 3-tert-butyl-4-[[5-(2-oxo-3H-benzimidazol-1-yl)-2-pyridyl]oxy]benzonitrile] | 4.91
– | CCc1cc(Oc2ccc(-n3c(=O)[nH]c4ccccc43)cn2)ccc1C#N [Example 21, 2-ethyl-4-[[5-(2-oxo-3H-benzimidazol-1-yl)-2-pyridyl]oxy]benzonitrile] | 4.73
– | CC(C)Oc1cc(Oc2ccc(-n3c(=O)[nH]c4ccccc43)cn2)ccc1C#N [Example 22, 2-isopropoxy-4-[[5-(2-oxo-3H-benzimidazol-1-yl)-2-pyridyl]oxy]benzonitrile] | 4.68
– | O=c1[nH]c2ccccc2n1-c1ccc(Oc2cccc3c2C2(CC2)CO3)c(F)c1 [Example 23, 3-(3-fluoro-4-spiro[2H-benzofuran-3,1′-cyclopropane]-4-yloxy-phenyl)-1H-benzimidazol-2-one] | 5.46
– | CC(C)(C)c1cc(C#N)ccc1Oc1ccc(-n2c(=O)[nH]c3cncnc32)cn1 [Example 24, 3-tert-butyl-4-[[5-(8-oxo-7H-purin-9-yl)-2-pyridyl]oxy]benzonitrile] | 5.40
5.23 | Cc1ccc(Oc2ccc(-n3c(=O)[nH]c4cncnc43)cn2)cc1OC(F)(F)F [Example 25, 9-[6-[4-methyl-3-(trifluoromethoxy)phenoxy]-3-pyridyl]-7H-purin-8-one] | –
– | CC(C)(C)c1cc(C#N)ccc1Oc1ccc(-n2c(=O)[nH]c3cnccc32)cn1 [Example 26, 3-tert-butyl-4-[[5-(2-oxo-3H-imidazo[4,5-c]pyridin-1-yl)-2-pyridyl]oxy]benzonitrile] | 5.33
– | CC(C)(C)c1cc(C#N)ccc1Oc1ccc(-n2c(=O)[nH]c3cc(F)cnc32)cn1 [Example 27, 3-tert-butyl-4-[[5-(6-fluoro-2-oxo-1H-imidazo[4,5-b]pyridin-3-yl)-2-pyridyl]oxy]benzonitrile] | 5.26
– | COc1cc(Oc2ccc(-n3c(=O)[nH]c4cc(Cl)cnc43)cn2)ccc1C [Example 28, 6-chloro-3-[6-(3-methoxy-4-methyl-phenoxy)-3-pyridyl]-1H-imidazo[4,5-b]pyridin-2-one] | 5.00
– | COc1cc(Oc2ccc(-n3c(=O)[nH]c4cc(C(F)(F)F)cnc43)cn2)ccc1C [Example 29, 3-[6-(3-methoxy-4-methyl-phenoxy)-3-pyridyl]-6-(trifluoromethyl)-1H-imidazo[4,5-b]pyridin-2-one] | 5.24
– | COc1cc(Oc2ccc(-n3c(=O)[nH]c4ncccc43)cn2)ccc1C [Example 30, 1-[6-(3-methoxy-4-methyl-phenoxy)-3-pyridyl]-3H-imidazo[4,5-b]pyridin-2-one] | 4.72
– | COc1cc(Oc2ccc(-n3c(=O)[nH]c4ccncc43)cn2)ccc1C [Example 31, 3-[6-(3-methoxy-4-methyl-phenoxy)-3-pyridyl]-1H-imidazo[4,5-c]pyridin-2-one] | 4.68
– | COc1cc(Oc2ccc(-n3c(=O)[nH]c4cnccc43)cn2)ccc1C [Example 32, 1-[6-(3-methoxy-4-methyl-phenoxy)-3-pyridyl]-3H-imidazo[4,5-c]pyridin-2-one] | 5.36
– | COc1cc(Oc2ccc(-n3c(=O)[nH]c4cccnc43)cn2)ccc1C [Example 33, 3-[6-(3-methoxy-4-methyl-phenoxy)-3-pyridyl]-1H-imidazo[4,5-b]pyridin-2-one] | 5.47
– | COc1cc(Oc2ccc(-n3c(=O)[nH]c4ccccc43)cn2)ccc1C [Example 34, 3-[6-(3-methoxy-4-methyl-phenoxy)-3-pyridyl]-1H-benzimidazol-2-one] | 5.28
